Consider 26 compounds from patent publication US11512069B2, “TLR7/8 antagonists and uses thereof” (Merck Patent GmbH, priority 2016, dated 2022).

This experiment has as its target T1, TLR7 (Homo sapiens, UniProt Q9NYK1).
T1 construct: expressed in transfected cells; host or cells: HEK cells carrying TLR7 and an NF-kB reporter read with Steady-Glo
T1 sequence (Q9NYK1 27-1049): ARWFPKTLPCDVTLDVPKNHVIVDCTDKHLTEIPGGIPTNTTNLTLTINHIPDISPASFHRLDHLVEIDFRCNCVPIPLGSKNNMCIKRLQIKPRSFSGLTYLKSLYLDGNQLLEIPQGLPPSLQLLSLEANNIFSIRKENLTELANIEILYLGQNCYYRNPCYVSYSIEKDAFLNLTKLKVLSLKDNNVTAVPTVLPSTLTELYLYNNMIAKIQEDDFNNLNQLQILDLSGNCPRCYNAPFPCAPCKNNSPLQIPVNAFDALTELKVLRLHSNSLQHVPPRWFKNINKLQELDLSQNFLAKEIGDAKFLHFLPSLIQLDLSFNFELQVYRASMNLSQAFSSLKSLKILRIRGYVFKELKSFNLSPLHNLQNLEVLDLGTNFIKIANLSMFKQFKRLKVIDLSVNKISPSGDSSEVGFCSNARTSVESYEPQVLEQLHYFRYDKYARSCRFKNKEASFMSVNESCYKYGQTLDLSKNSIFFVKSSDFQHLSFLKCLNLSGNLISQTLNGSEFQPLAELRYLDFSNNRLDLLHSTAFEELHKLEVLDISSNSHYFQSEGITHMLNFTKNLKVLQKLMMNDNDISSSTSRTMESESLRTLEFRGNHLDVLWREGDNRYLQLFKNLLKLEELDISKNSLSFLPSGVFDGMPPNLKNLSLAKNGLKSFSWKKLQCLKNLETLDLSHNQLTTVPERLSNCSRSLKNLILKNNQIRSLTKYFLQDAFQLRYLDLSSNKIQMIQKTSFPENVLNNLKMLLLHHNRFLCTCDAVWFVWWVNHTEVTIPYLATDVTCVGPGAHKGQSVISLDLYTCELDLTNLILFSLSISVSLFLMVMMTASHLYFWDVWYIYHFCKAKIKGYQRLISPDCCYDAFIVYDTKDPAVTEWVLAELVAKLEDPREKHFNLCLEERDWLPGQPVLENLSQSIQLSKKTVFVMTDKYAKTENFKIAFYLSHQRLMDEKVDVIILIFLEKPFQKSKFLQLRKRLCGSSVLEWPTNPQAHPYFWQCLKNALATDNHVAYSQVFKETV
Description: HEK Cell Assay (TLR7/NFKb HEK reporter cells, Steady-Glo). As to conditions: compound 30 min, then R*48 agonist 5 hours, Steady-Glo readout, read-out: Potency. Format: cell-based. The procedure:
Example 32: HEK Cell Assay
Into 384 CulturePlates (Corning 3707) was placed 5000 c/w of TLR7/NFKb HEK cells in 30 uL DMEM without Phenil red (gibco #31053) and 10% i.a. FCS and 2 mM L-ZGLutamin. The cells were incubated for 24 h at 37 degrees Celsius, 10% carbon dioxide and 90% relative humidity, 3 uL of controls, standards, and compounds were dispensed to wells, incubated for 30 min then 3 uL of R*48 agonist in 20 mM Hepes was added. After incubation for 5 hours, it was allowed to stand at room temperature for 15 min, 10 uL of Steady-Glo substrate reagent was added and shake assay plate for 5 min at 1500 rpm. The assay plate was allowed to sit for 30 min at room temperature and then read plate on EnVision.

Structures are written as SMILES.

As for `CC1CC(c2ccc(C#N)c3ncccc23)CN(C(=O)NC2CCN(C)CC2)C1` (centres unmarked) [Compound 109, 3-(8-Cyano-quinolin-5-yl)-5-methyl-piperidine-1-carboxylic acid (1-methyl-piperidin-4-yl)-amide], the IC50 was under 1000 nM.
On to `C[C@@H]1CC(c2ccc(C#N)c3ncccc23)CN(C(=O)CC2CCN(C)CC2)C1` (some centres unmarked) [Compound 2], for which the IC50 was under 1000 nM.
Take `CC1CC(c2ccc(C(F)(F)F)c3ncccc23)CN(C(=O)CC2CC3CCC(C2)N3C)C1` (centres unmarked) [Compound 18, 2-(8-Methyl-8-aza-bicyclo[3.2.1]oct-3-yl)-1-[3-methyl-5-(8-trifluoromethyl-quinolin-5-yl)-piperidin-1-yl]-ethanone]: the IC50 was under 1000 nM.
`CC(C)[C@H](O)C(=O)N[C@@H]1C[C@H](C)C[C@@H](c2ccc(C#N)c3nccnc23)C1` [Compound 127, (S)—N-((1R,3R,5R)-3-(8-cyanoquinoxalin-5-yl)-5-methylcyclohexyl)-2-hydroxy-3-methylbutanamide]: the IC50 is over 20000 nM.
In the case of `C[C@@H]1C[C@H](c2ccc(C#N)c3ncccc23)CN(C(=O)CC2CCN(C)C2)C1` (stereo partly drawn) [Compound 35, cis-5-Methyl-1-[2-(1-methyl-pyrrolidin-3-yl)-acetyl]-piperidin-3-yl-quinoline-8-carbonitrile], the IC50 was under 1000 nM.
Turning to `CC1CC(c2ccc(C#N)c3ncccc23)CN(C(=O)CC2CCN(C)CC2)C1` (stereo in doubt) [Compound 55, 5-{(3S,5R)-5-Methyl-1-[2-(1-methyl-piperidin-4-yl)-acetyl]-piperidin-3-yl}-quinoline-8-carbonitrile], the IC50 was under 1000 nM.
Consider `C[C@H]1C[C@@H](c2ccc(C#N)c3nccnc23)CN(C(=O)CC2CCN(C)CC2)C1` [Compound 102, 8-{(3S,5S)-5-Methyl-1-[2-(1-methyl-piperidin-4-yl)-acetyl]-piperidin-3-yl}-quinoxaline-5-carbonitrile], for which the IC50 is under 1000 nM.
For `C[C@@H]1C[C@H](N)C[C@@H](c2ccc(C(F)(F)F)c3nccnc23)C1` [Compound 141, (1S,3S,5S)-3-methyl-5-(8-(trifluoromethyl)quinoxalin-5-yl)cyclohexanamine], the IC50 is under 1000 nM.
The figure for `COCCN[C@@H]1C[C@H](C)C[C@@H](c2ccc(C(F)(F)F)c3ncccc23)C1` (racemic) [Compound 151, (1,trans-3,trans-5,cis)-N-(2-methoxyethyl)-3-methyl-5-(8-(trifluoromethyl)quinolin-5-yl)cyclohexanamine] is 1000 to 20000 nM.
The figure for `CC(=O)N1C[C@H](C)C[C@H](c2ccc(C(F)(F)F)c3ncccc23)C1` (relative stereo) [Compound 10, cis-1-[3-Methyl-5-(8-trifluoromethyl-quinolin-5-yl)-piperidin-1-yl]-ethanone] is over 20000 nM.
Regarding `C[C@@H]1C[C@H](c2ccc(C#N)c3ncccc23)CN(C(=O)[C@@H](N)C2CC2)C1` [Compound 61], the IC50 lay in the range of 1000 to 20000 nM.
For the compound `C[C@@H]1C[C@H](c2ccc(C#N)c3ncccc23)CN(CC(=O)NC2CCN(C)CC2)C1` (relative stereo) [Compound 68, cis-2-[3-(8-Cyano-quinolin-5-yl)-5-methyl-piperidin-1-yl]-N-(1-methyl-piperidin-4-yl)-acetamide], the IC50 was in the range of 1000 to 20000 nM.
`COc1ccc([C@H]2C[C@@H](C)CN(C(=O)CC3CCN(C)CC3)C2)c2cccnc12` [Compound 87, 1-[(3R,5R)-3-(8-Methoxy-quinolin-5-yl)-5-methyl-piperidin-1-yl]-2-(1-methyl-piperidin-4-yl)-ethanone]: the IC50 is under 1000 nM.
`C[C@H]1C[C@@H](NC(=O)CC(C)(C)C)C[C@@H](c2ccc(C#N)c3nccnc23)C1` (racemic) [Compound 129, N-[(cis-1,3,5)-3-(8-cyanoquinoxalin-5-yl)-5-methylcyclohexyl]-3,3-dimethylbutanamide]: the IC50 was under 1000 nM.
As for `CC1CC(c2ccc(C(F)(F)F)c3ncccc23)CN(C(=O)CCN2CCN(C)CC2)C1` (stereo in doubt) [Compound 45, 3-(4-Methyl-piperazin-1-yl)-1-[(3S,5S)-3-methyl-5-(8-trifluoromethyl-quinolin-5-yl)-piperidin-1-yl]-propan-1-one], the IC50 was in the range of 1000 to 20000 nM.
On to `C[C@H]1C[C@@H](NC(=O)CN(C)C)C[C@@H](c2ccc(C#N)c3nccnc23)C1` (racemic) [Compound 131, N-[(cis-1,3,5)-3-(8-cyanoquinoxalin-5-yl)-5-methylcyclohexyl]-2-(dimethylamino)acetamide], for which the IC50 is under 1000 nM.
Take `C[C@@H]1C[C@H](c2ccc(C#N)c3ncccc23)CN(CC(=O)NCC2CCN(C)CC2)C1` (relative stereo) [Compound 74, cis-2-[3-(8-Cyano-quinolin-5-yl)-5-methyl-piperidin-1-yl]-N-(1-methyl-piperidin-4-ylmethyl)-acetamide]: the IC50 is 1000 to 20000 nM.
Turning to `CC1CC(c2ccc(C(F)(F)F)c3ncccc23)CN(c2cnn(C)c2)C1` (centres unmarked) [Compound 58, 5-[5-Methyl-1-(1-methyl-1H-pyrazol-4-yl)-piperidin-3-yl]-8-trifluoromethyl-quinoline], the IC50 was in the range of 1000 to 20000 nM.
Consider `C[C@H]1C[C@@H](N)C[C@H](c2ccc(C(F)(F)F)c3nccnc23)C1` [Compound 140, (1R,3R,5R)-3-methyl-5-(8-(trifluoromethyl)quinoxalin-5-yl)cyclohexanamine], for which the IC50 fell in the range of 1000 to 20000 nM.
With `C[C@@H]1C[C@H](c2ccc(C#N)c3ncccc23)CN(C(=O)CCc2cccnc2)C1` (relative stereo) [Compound 24], the IC50 is over 20000 nM.
With `C[C@@H]1C[C@H](N)C[C@H](c2ccc(C(F)(F)F)c3ncccc23)C1` [Compound 136, (1S,3S,5R)-3-methyl-5-(8-(trifluoromethyl)quinolin-5-yl)cyclohexanamine], the IC50 was under 1000 nM.
Turning to `C[C@@H]1C[C@H](c2ccc(OC(F)(F)F)c3ncccc23)CN(C(=O)NC2CCN(C)CC2)C1` [Compound 112, (3R,5R)-3-Methyl-5-(8-trifluoromethoxy-quinolin-5-yl)-piperidine-1-carboxylic acid (1-methyl-piperidin-4-yl)-amide], the IC50 is under 1000 nM.
The figure for `C[C@H]1C[C@@H](N)C[C@@H](c2ccc(C(F)(F)F)c3nccnc23)C1` [Compound 139, (1R,3R,5S)-3-methyl-5-(8-(trifluoromethyl)quinoxalin-5-yl)cyclohexanamine] is under 1000 nM; for `C[C@@H]1C[C@H](c2ccc(C#N)c3ncccc23)CN(CC(=O)NCCN2CCN(C)CC2)C1` (relative stereo) [Compound 72, cis-2-[3-(8-Cyano-quinolin-5-yl)-5-methyl-piperidin-1-yl]-N-[2-(4-methyl-piperazin-1-yl)-ethyl]-acetamide] it is 1000 to 20000 nM; for `C[C@H]1C[C@@H](NC(=O)CN2CCCCC2)C[C@@H](c2ccc(C#N)c3nccnc23)C1` (racemic) [Compound 157, N-[(cis-1,3,5)-3-(8-cyanoquinoxalin-5-yl)-5-methylcyclohexyl]-2-(piperidin-1-yl)acetamide] it is under 1000 nM.
As to `C[C@@H]1C[C@@H](c2ccc(C#N)c3ncccc23)CN(CC(=O)NC2CCN(C)CC2)C1` (relative stereo) [Compound 69, trans-2-[3-(8-Cyano-quinolin-5-yl)-5-methyl-piperidin-1-yl]-N-(1-methyl-piperidin-4-yl)-acetamide], the IC50 lay within 1000 to 20000 nM.
